Results published in patent publication US4562207A, “Prostaglandin analogue” (Ono Pharmaceutical Co., Ltd., priority 1983, dated 1985).
In brackets after ≈: the same amount, converted by molar mass. Where two headings read alike, the source gives them in different places.

What was measured:
[1] = test system: platelet aggregation induced by adenosine-diphosphoric acid (ADP); assay: inhibiting activity on platelet aggregation induced by ADP on human blood; type: cell-based; conditions: for IC50: read-out: IC50 (concentration which produces 50%-inhibition of platelet aggregation); for Relative activity against PGE1: relative to PGE1 (control) = 1.00, ADP-induced
Text: The platelet aggregation was induced by adenosine-diphosphoric acid (ADP) on human blood. The IC50 values given in the Table are the concentrations which produce 50%-inhibition of platelet aggregation.
INHIBITING ACTIVITIES ON PLATELET AGGREGATION INDUCED BY ADP

[2] = test system: carbon tetrachloride-induced liver damage; assay: carbon tetrachloride-induced liver damage in rats; type: in vivo; conditions: oral, in comparison with controls
Protocol: The experiments were carried out by the methods described in Example 1 of the specification of published W. German Patent Application No. 3310556.1 and Japanese Patent Kokai No. 58-164512, except that carbon tetrachloride was used as a 10% solution in olive oil.

[3] = acute toxicity in mice by oral administration; conditions: mouse, in vivo
Protocol: For example, in a test of acute toxicity in mice by oral administration, the value of LD50 of 6-keto-16S,18S-ethano-20-ethyl-PGE1 for the compound of the present invention is very large; that is the value is more than […] animal body weight.

[4] = ADP-induced platelet aggregation, human blood

Row | Structure (SMILES) | IC50 [1, 4] [ng/mL] | IC50 ([1]; Homo sapiens, Platelet) [ng/mL] | activity as compared with the comparison compound (times as strong) ([1]; compared with compound of Example 2(d) of U.S. Pat. No. 4,278,688, platelet aggregation) | Relative activity against PGE1 ([1]; human blood) | inhibition of plasma GOT (glutamic oxalacetic transaminase) ([2]; 20 μg/kg) [%] | inhibition of plasma GPT (glutamic pyruvic transaminase) ([2]; 20 μg/kg) [%] | inhibition of plasma GOT (glutamic oxalacetic transaminase) ([2]; 50 μg/kg) [%] | inhibition of plasma GPT (glutamic pyruvic transaminase) ([2]; 50 μg/kg) [%] | LD50 [3] [mg/kg]
1 | CCCCC[C@H](O)/C=C/[C@H]1[C@H](O)CC(=O)[C@@H]1CCCCCCC(=O)O [PGE1, reference compound] | 34.5 (≈ 97.3 nM) |  |  |  |  |  |  |  | 
2 | CCCC[C@H]1CC[C@H]([C@H](O)/C=C/[C@H]2[C@H](O)CC(=O)[C@@H]2CC(=O)CCCCC(=O)O)C1 [6-keto-16S,18S-ethano-20-ethyl-PGE1, 6,9-dioxo-11α,15α-dihydroxy-16S,18S-ethano-20-ethylprost-13E-enoic acid] |  | 0.08 (≈ 0.189 nM) | about 45 times | 431 | 47 | 42 | 64 | 66 | > 3
3 | CCCCC1CCC([C@H](O)/C=C/[C@H]2[C@H](O)CC(=O)[C@@H]2CC(=O)CCCCC(=O)OC)C1 (some centres unmarked) [reference compound] | 3.6 (≈ 8.25 nM) |  |  | 9.58 |  |  |  |  | 
